1 compound from patent US20250161245A1, “A MIXTURE OF UREA, BIURET AND N-CONTAINING BY-PRODUCTS CREATED DURING BIURET PRODUCTION AS A DIETARY NON-PROTEIN NITROGEN-SOURCE FOR RUMINANTS AND USES THEREOF” (Yara International ASA, priority 2022, published 2025) can be followed below.

In one assay the test system is ruminal fluid. Kind of assay: in vitro dry and organic matter digestibility, batch culture (Example 4). The following applies: 24 hours of incubation, corn silage-based diet. Type of assay: cell-based, Angus crossbred steers. As to the method: The in vitro incubations were conducted on three separate days (replicates). A representative sample of digesta was collected from different places in the rumen of ruminally cannulated steers and strained through 4 layers of cheesecloth, placed in pre-warmed thermos containers, and transported to the laboratory within 30 minutes after the collection. In the laboratory, the ruminal fluid from the two steers was maintained under constant CO2-flux and was combined in equal proportions. This combined ruminal fluid was mixed with McDougall's buffer (McDougall, 1948) with and without 0.077 g/liter of 10 wt. % ammonium sulfate enriched with ^15N in relation 1:4, and it was used as an inoculum. Two bottles of 500 ml fitted with a side arm and a rubber septum were incubated per treatment. […] At the end of the 24 hours incubation, the final pH was recorded, the bottles were placed on ice to prevent further microbial fermentation and two 10-ml samples were collected and acidified by adding 20 μl of a 20 vol/vol % of H2SO4-solution and were frozen at minus 20° C. until further analysis. […]
The concentration of ammonia-N at 12 and 24 hours in the incubation fluid was measured after centrifuging at 10,000×g for 15 minutes at 4° C. using an Avanti J-E centrifuge from Beckman Coulter® Incorporated. […]

Assay [1] is described as follows: animal performance of steers with NPN supplementation (Example 3). It counts as in vivo, crossbred yearling steers.
Test in assay [2]: as above
It counts as in vivo, crossbred yearling steers. The text has this:
A total of 72 crossbred yearling steers [303 kg±29 kg initial body weight (BW) were stratified by body weight (BW) and randomly allocated to three treatments. All steers consumed a basal diet of corn silage, cotton-gin trash, and a premix of vitamins and minerals.
The steers were housed in pens (8 steers/pen, 3 pens/treatment). The steers were supplemented with two different NPN-sources on an isonitrogenous basis, considering as reference the N provided by urea when included at 1 wt. % of the diet in dry matter (DM) basis.
In Table 5, the composition of the basal diet supplemented with two different types of NPN, i.e. urea (Urea) (46% N) and a mixture of urea and biuret according to the present disclosure (UB), with composition as in example 1 (41% N) is shown.
The gain to feed ratio (G:F) was computed as the ratio of the average daily gain (ADG) to daily dry matter intake (DMI). The feed intake was recorded daily. The individual intake was determined via the GrowSafe® intake monitoring system. In cattle management, GrowSafe Systems is a commonly used tool to closely monitor individual animal feeding data using radio frequency identification (RFID) tag technology. The animals are equipped with a unique RFID tag that is read by the feed bunks each time the animal lowers its head into the bunk to consume feed. Average daily weight gain (ADG) and feed efficiency were calculated during the performance evaluation. The ADG was determined by the difference between the final BW and the initial BW divided by the number of days of the performance evaluation (56 days). The initial BW was calculated as the average unshrunk BW of […] on days 16 and 17. The final BW was the average unshrunk BW measured on days 72 and 73. The unshrunk BW was obtained every 14 days.
The source holds these as a separate data set.

`NC(N)=O` [Urea, urea] returned an IVDMD in the assay with ruminal fluid of 45.08%. The compound also returned an IVOMD in the assay on ruminal fluid of 65.38%. The ADG in assay [1] (days 0-14) turned out to be 0.78 kg; in assay [1] (days 0-28) it was 0.81 kg; in assay [1] (days 0-42), 1.02 kg; in assay [2] (days 0-56), 1.01 kg. For the same compound, the DMI in assay [2] (days 0-14) turned out to be 6.82 kg/day; in assay [2] (days 0-28) it was 7.03 kg/day; in assay [2] (days 0-42), 7.24 kg/day; in assay [2] (days 0-56), 7.29 kg/day. Moreover, the “G:F” value in assay [2] (days 0-14) is 0.10 kg/kg; in assay [2] (days 0-28) it was 0.11 kg/kg; in assay [2] (days 0-42) it was 0.14 kg/kg; in assay [2] (days 0-56), 0.14 kg/kg. For the same compound, the “DMI (% of BW)” value in assay [2] (steers) is 2.31 % of BW. In addition, the NEg in assay [2] (steers) was 0.55 Mcal/kg of DM. Also, the “Initial BW” value in assay [2] (steers, baseline, NPN 1.00 wt. % urea or 1.12 wt. % UB of diet DM) is 288.69 kg. The “Final BW” value in assay [2] (steers, end of 56 days performance evaluation) worked out at 343.69 kg.
